Measurements published in patent US7718614B2 (Kurume University, priority 2003, dated 2010).
Values joined by “and” are separate entries in the source; they are usually repeats but may differ in a detail not shown here. Identical values can stand only once. “Also recorded” adds a separate entry of the source.

How the values were obtained:
[1] = tested on: peptide-specific CTL precursors in PBMCs; assay: Peptide-specific CTL precursor assay (IFN-γ production of peptide-stimulated PBMCs), Example 1; format: cell-based, human; set-up: key to Cellular response to peptide during the combination therapy, 12th / Cellular response to peptide during the combination therapy, 6th / Cellular response to peptide during the combination therapy, Pre: Ar: p* ≦ 0.1 and 500 ≦ net**; A: p ≦ 0.05 and 50 ≦ net; B: p ≦ 0.05 and 25 ≦ net < 50; C: 0.05 < p < 0.1 and 50 ≦ net; AAAA: all four wells of quadruplicate assay were positive; AAA: three wells of quadruplicate assay were positive; AA: two wells of quadruplicate assay were positive; details: PBMCs of the individual case; for Cellular response to peptide during the combination therapy, 12th: after 12th vaccination; for Cellular response to peptide during the combination therapy, Pre: before combination therapy, grade of each positive well of quadruplicate IFN-γ assay; for Cellular response to peptide during the combination therapy, 6th: after 6th vaccination; for Cellular response to peptide during the combination therapy, 18th: after 18th vaccination;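 on all read-outs here: PBMCs cultured with each peptide at 10 µM, restimulated at 20 µM every 3 days up to 12 days, then 18 hr with peptide-pulsed target cells, IFN-γ by ELISA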
Description: Before the first vaccination and 7 days after every 6th vaccination, 30 ml of peripheral blood was obtained, and PBMCs were isolated by means of Ficoll-Conray density gradient centrifugation. Peptide-specific CTL precursors in PBMCs were detected using a previously reported culture method [24]. Briefly, PBMCs (1×10^5 cells/well) were incubated with 10 μM of each peptide in U-bottom-type 96-well microculture plates (Nunc, Roskilde, Denmark) in 200 μl of culture medium. The culture medium contained 45% RPMI-1640 medium, 45% AIM-V™ medium (Invitrogen Corp., Carlsbad, Calif.), 10% FCS, 100 U/ml of interleukin-2 (IL-2) and 0.1 mM MEM nonessential amino acid solution (Invitrogen Corp.). Half of the medium was removed and replaced with the new medium containing a corresponding peptide (20 μM) every 3 days for up to 12 days. […] The target cells (C1R-A2402 or T2, 1×10^4/well) were pulsed with each peptide (10 μM) for 2 hr, and then effector cells (1×10^5/well) were added to each well with the final volume of 200 μl. After incubation for 18 hr, the supernatants (100 μl) were collected, and the amounts of IFN-γ were measured using an enzyme-linked immuno-sorbent assay (ELISA) (limit of sensitivity: 10 pg/ml). All experiments were performed in the four different wells with duplicate assays. […] Peptides were chosen based upon evaluation of all 4 wells by the order shown above.
Peptide-specific CTL precursors in PBMCs were detected using a previously reported culture method [24], while an ELISA was used to detect the serum IgG levels specific for the peptides administrated, as reported previously [13-15]. […] Namely, PBMCs were harvested every 2 weeks and were cultured (10^4 cells/well) for 2 days in triplicate assays with 10 μl M of phytohemagglutinin (PHA), 10 ng/ml of Epstein-Bar virus (EBV)-derived peptide with HLA-A24 or -A2 binding motif, and 10 ng/ml of two different peptides under vaccination. After 2 days in culture, the amounts of IFN-γ in cell free supernatants were measured in triplicate assays, and viable cell numbers were also counted. To avoid biases in each assay, all the PBMCs were once cryopreserved and the four different PBMCs (two from healthy donors, one from patients PBMCs harvested 2 weeks before the latest vaccination, and one from the latest vaccination) were thawed at the same time in the morning of the experiment. The PBMCs from healthy donors were from the same donors throughout the series of immunological monitoring. Responses (IFN-γ production) to PHA, EBV-peptide, and the vaccinated peptides were considered to be mediated by resting T cells, memory T cells, and activated T cells, respectively.

[2] = tested on: peptide-specific IgG; assay: ELISA of serum IgG specific for the administered peptides, Example 1; format: in vivo, human; set-up: key: −: absent; +: present, low titer; ++: present, high titer; details: serum of the individual case; for Anti-peptide IgG during the combination therapy, 6th: after 6th vaccination; for Anti-peptide IgG during the combination therapy, 12th: after 12th vaccination; for Anti-peptide IgG during the combination therapy, Pre: before combination therapy; for Anti-peptide IgG during the combination therapy, 18th: after 18th vaccination

Sequence | Cellular response to peptide during the combination therapy, 12th [1] | Cellular response to peptide during the combination therapy, Pre [1] | Anti-peptide IgG during the combination therapy, 6th [2] | Anti-peptide IgG during the combination therapy, 12th [2] | Anti-peptide IgG during the combination therapy, Pre [2] | Cellular response to peptide during the combination therapy, 6th [1] | Anti-peptide IgG during the combination therapy, 18th [2] | Cellular response to peptide during the combination therapy, 18th [1]
ALVEFEDVL [HNRPL140-148] | ArArArA | AAC | ++ | + | − |  |  | 
ASLDSDPWV [WHSC2103-111] |  |  | − |  | − |  |  | 
DFMIQGGDF [CyB91-99] |  |  | − |  | − | C (0.05 < p < 0.1 and 50 ≦ net) |  | 
DLLSHAFFAI [ppMAPkkk432-440] |  | ArA and A (p ≦ 0.05 and 50 ≦ net) | ++ and − (2×) and + | ++ and + (2×) | + and − (3×) | C (0.05 < p < 0.1 and 50 ≦ net); also recorded: A (p ≦ 0.05 and 50 ≦ net) | + | 
DVWSFGILL [lck422-430] | C (0.05 < p < 0.1 and 50 ≦ net) | A (p ≦ 0.05 and 50 ≦ net); also recorded: Ar (p* ≦ 0.1 and 500 ≦ net**); also recorded: C (0.05 < p < 0.1 and 50 ≦ net) | + (2×) and − (4×) | + (2×) and − (3×) | − (5×) and + | C (0.05 < p < 0.1 and 50 ≦ net) and A (p ≦ 0.05 and AAA | − | C (0.05 < p < 0.1 and 50 ≦ net); also recorded: ArAAA
EYCLKFTKL [ART 1170-179] | AAA | A (p ≦ 0.05 and 50 ≦ net) | ++ | ++ | ++ | C (0.05 < p < 0.1 and 50 ≦ net); also recorded: A (p ≦ 0.05 and 50 ≦ net) | ++ | A (p ≦ 0.05 and 50 ≦ net)
GLLFLHTRTI [ppMAPkkk294-302] | C (0.05 < p < 0.1 and 50 ≦ net) | A (p ≦ 0.05 and 50 ≦ net) | + and − (2×) and ++ | + and − and ++ | − (3×) and + | C (0.05 < p < 0.1 and 50 ≦ net) | + and − | ArArAA
ILGELREKV [WHSC2141-] |  |  | − | − | − |  |  | 
KLKHYGPGWV [CypB129-138] |  | A (p ≦ 0.05 and 50 ≦ net) | − | − and + | − | A (p ≦ 0.05 and 50 ≦ net) |  | 
KLVERLGAA [lck246-254] | B (p ≦ 0.05 and 25 ≦ net < 50) (2×) and ArAA | A (p ≦ 0.05 and 50 ≦ net) and ArC | ++ (4×) and − | ++ (4×) and − | ++ (3×) and − (2×) | A (p ≦ 0.05 and 50 ≦ net) | − | ArAAA
LIADFLSGLI [UBE2V85-93] | A (p ≦ 0.05 and 50 ≦ net) |  | − | + | − |  | + | 
NVLHFFNAPL [HNRPL501-510] | ArArAc; also recorded: ArArAr | A (p ≦ 0.05 and 50 ≦ net) and ArAr | ++ and − (2×) and + | ++ (2×) and − | − (3×) and + | AAA and ArArArAr | + | ArA
RIIYDRKFL [EIF4EBP151-59] | A (p ≦ 0.05 and 50 ≦ net) |  | − and ++ | − and ++ | − and + |  | + | B (p ≦ 0.05 and 25 ≦ net < 50)
RLAEYQAYI [SART 3309-317] | Ar (p* ≦ 0.1 and 500 ≦ net**) | A (p ≦ 0.05 and 50 ≦ net) | − | − | − | Ar (p* ≦ 0.1 and 500 ≦ net**) | + | ArAC
RLQEWCSVI [UBE2V43-51] | ArArArA; also recorded: A (p ≦ 0.05 and 50 ≦ net); also recorded: C (0.05 < p < 0.1 and 50 ≦ net) | AAA and AAAB and ArA | ++ (3×) and + | ++ | ++ and − (2×) and + | ACC and AA |  | 
SYTRLFLIL [SART 2899-907] |  | A (p ≦ 0.05 and 50 ≦ net) | − | − | − |  | − | A (p ≦ 0.05 and 50 ≦ net)
VLEGMEVV [CypB172-179] | A (p ≦ 0.05 and 50 ≦ net) | A (p ≦ 0.05 and 50 ≦ net) | + | + | − (2×) and + |  | + | B (p ≦ 0.05 and 25 ≦ net < 50); also recorded: A (p ≦ 0.05 and 50 ≦ net)
